Source: patent publication US20170158735A1, “METHOD FOR PRODUCING A RECOMBINANT PEPTIDE AND RESULTANT PEPTIDE” ("IVIX" Ltd., priority 2012, published 2017)
Ends that are not written are not given here.

System: sexual behavior of female rats
Test: Lordosis test: sexual behavior of ovariectomized hormonally stimulated female rats with a sexually active male
Type: in vivo, rat
Settings: for Percentage of lordoses / Number of acts of proceptive behavior: ovariectomized hormonally stimulated female rats, progesterone 0.5 mg/rat, test product 100 μg/rat; for Percentage of lordoses: negative control 0.73 ± 0.12; for Number of acts of proceptive behavior: negative control 14 ± 4; for Effect on sexual motivation / reproductive- and sexual-function stimulating activity (in words): lordosis model, female rats, 100 μg/rat
Procedure: Sexual behavior was recorded in ovariectomized hormonally stimulated females in direct contact with the sexually active male, or when such a contact was impossible. […]
Sexual behavior was recorded in ovariectomized hormonally stimulated females in direct contact with the sexually active male, or when such a contact was impossible.

Substance	Percentage of lordoses (Table 4 / Example 8)	Number of acts of proceptive behavior (Table 4 / Example 8) [acts]	Percentage of lordoses (Table 5 / Example 9)	Effect on sexual motivation / reproductive- and sexual-function stimulating activity (in words)
Pro-Arg-Pro-Gly-Pro (PRPGP)	0.73 ± 0.14	14 ± 6	–	–
Thr-Lys-Pro-Arg-Pro (TKPRP)	–	–	0.99 ± 0.09	intensification of sexual motivation
Arg-Pro-Gly-Pro (RPGP)	0.69 ± 0.14	15 ± 4	–	–
TKPRPF	–	–	0.94 ± 0.14	intensification of sexual motivation
Thr-Lys-Pro-Arg (TKPR)	–	–	–	lack of sexual motivation effect
Thr-Lys-Pro-Phe (TKPF)	–	–	–	lack of sexual motivation effect
Thr-Lys-Pro (TKP)	0.97±0.12	29±6	0.96 ± 0.12	intensification of sexual motivation
Pro-Gly-Pro (PGP)	0.74 ± 0.09	13 ± 5	–	–
